In experiment [1] the target is N-methyl-D-aspartate receptor (NMDAR) NR1/NR2B (Homo sapiens, UniProt Q05586+Q13224). Kind of experiment: two-electrode voltage clamp in oocytes, inhibition concentration-response. Type of experiment: cell-based. (Two-electrode voltage clamp holds a large cell at a set potential and records current.)
The target in experiment [2] is γ-aminobutyric acid type A receptor (GABAAR) α1β2γ2s (Homo sapiens, UniProt P14867+P47870). Kind of experiment: whole-cell patch clamp, shift of GABA EC50. Type of experiment: cell-based.
γ-aminobutyric acid type A receptor (GABAAR) α1β2γ2s, sequence (P14867 28-456): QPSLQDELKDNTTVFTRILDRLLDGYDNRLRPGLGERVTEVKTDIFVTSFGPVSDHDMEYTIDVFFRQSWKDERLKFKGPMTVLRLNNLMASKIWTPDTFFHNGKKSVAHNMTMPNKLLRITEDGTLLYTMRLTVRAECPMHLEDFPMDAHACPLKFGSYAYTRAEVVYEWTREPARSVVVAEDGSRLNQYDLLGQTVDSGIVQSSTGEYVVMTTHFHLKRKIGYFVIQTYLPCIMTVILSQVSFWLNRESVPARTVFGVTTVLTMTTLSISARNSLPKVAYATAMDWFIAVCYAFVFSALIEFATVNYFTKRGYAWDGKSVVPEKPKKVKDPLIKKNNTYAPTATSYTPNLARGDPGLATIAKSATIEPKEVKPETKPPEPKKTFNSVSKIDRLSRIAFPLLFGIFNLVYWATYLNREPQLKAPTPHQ
γ-aminobutyric acid type A receptor (GABAAR) α1β2γ2s, sequence (P47870 26-512): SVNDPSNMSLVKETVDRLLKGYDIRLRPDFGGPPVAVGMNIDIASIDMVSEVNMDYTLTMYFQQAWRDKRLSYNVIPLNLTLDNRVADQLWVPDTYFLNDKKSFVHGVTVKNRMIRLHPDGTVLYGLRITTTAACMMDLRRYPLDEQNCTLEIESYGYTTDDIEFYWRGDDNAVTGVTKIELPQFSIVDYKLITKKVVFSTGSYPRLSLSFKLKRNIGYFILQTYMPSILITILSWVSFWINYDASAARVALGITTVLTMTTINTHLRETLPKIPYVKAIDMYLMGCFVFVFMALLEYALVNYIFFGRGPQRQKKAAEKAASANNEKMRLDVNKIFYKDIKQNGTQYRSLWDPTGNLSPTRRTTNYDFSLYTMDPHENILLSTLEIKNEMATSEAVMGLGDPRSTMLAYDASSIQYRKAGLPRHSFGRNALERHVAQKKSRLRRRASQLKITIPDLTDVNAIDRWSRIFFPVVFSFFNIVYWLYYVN
γ-aminobutyric acid type A receptor (GABAAR) α1β2γ2s, sequence (P18507 40-475 partner): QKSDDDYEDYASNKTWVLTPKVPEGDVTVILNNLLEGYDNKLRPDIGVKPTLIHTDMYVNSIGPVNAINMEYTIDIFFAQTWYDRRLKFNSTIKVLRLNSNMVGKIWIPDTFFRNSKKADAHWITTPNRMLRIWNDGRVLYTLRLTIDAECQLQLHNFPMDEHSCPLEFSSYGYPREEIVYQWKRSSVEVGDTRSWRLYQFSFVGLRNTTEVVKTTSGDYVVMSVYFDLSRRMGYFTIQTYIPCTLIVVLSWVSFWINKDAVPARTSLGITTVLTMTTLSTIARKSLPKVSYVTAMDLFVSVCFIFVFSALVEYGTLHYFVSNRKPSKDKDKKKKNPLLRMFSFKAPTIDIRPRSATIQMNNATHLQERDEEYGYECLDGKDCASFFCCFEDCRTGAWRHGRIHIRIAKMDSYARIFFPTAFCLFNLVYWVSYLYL

N-methyl-D-aspartate receptor (NMDAR) NR1/NR2B, sequence (Q13224 27-1484, other chains not shown): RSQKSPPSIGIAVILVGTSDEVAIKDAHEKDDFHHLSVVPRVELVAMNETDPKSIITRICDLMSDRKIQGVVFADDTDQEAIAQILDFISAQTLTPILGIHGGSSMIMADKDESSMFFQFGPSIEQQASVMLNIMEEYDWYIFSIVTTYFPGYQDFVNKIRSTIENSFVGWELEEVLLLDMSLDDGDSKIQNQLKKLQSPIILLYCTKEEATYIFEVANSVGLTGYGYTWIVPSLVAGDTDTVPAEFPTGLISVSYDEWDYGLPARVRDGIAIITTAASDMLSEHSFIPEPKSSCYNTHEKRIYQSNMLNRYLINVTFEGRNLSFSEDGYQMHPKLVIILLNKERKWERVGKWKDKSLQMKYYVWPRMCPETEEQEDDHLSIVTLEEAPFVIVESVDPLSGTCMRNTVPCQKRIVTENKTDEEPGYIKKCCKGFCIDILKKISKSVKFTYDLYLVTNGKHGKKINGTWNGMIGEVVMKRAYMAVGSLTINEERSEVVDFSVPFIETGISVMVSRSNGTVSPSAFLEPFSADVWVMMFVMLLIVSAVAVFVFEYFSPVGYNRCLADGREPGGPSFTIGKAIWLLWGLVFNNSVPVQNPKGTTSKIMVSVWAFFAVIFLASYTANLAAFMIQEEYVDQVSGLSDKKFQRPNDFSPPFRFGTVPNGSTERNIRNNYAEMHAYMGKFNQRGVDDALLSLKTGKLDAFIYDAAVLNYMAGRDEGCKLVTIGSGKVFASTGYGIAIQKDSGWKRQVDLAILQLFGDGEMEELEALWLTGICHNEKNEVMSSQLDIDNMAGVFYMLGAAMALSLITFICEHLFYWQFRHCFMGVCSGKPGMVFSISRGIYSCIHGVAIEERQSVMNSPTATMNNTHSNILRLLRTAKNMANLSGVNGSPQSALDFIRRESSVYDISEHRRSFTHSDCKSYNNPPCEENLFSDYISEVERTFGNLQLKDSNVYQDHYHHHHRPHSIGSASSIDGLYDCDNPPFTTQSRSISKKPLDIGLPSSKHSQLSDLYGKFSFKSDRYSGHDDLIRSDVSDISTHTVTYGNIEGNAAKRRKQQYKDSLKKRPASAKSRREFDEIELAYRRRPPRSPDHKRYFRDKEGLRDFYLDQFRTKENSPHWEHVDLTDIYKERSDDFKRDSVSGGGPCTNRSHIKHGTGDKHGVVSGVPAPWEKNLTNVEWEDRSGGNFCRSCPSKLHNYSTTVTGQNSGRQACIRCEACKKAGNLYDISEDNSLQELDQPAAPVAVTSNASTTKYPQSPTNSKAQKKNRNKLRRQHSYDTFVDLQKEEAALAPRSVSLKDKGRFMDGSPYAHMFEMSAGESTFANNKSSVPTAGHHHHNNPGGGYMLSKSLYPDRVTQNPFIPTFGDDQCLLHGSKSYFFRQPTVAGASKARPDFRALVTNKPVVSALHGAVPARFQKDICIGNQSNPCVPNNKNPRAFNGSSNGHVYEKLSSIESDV

What is called IC50 is the concentration at which inhibition is half-maximal. As to `FC(F)OC(Cl)C(F)(F)F` (stereo not drawn) [ISO, isoflurane], the IC50 in experiment [1] amounted to 2400 µM. The same measure, in the same setting: under `c1ccccc1` [benzene] stands 340 ± 40 µM. As to `ClC(Cl)Cl` [chloroform], in experiment [2], the “whole-cell patch clamp, shift of GABA EC50” value was “Both halothane and chloroform decreased the GABA EC50 in a dose dependent and saturable manner”.

The values above are taken from publication PMC2493416 (Anesthesia and analgesia, 2008).
